Measured values from patent US20260193264A1, “BENZOYPARAZINE PYRAZINES AND THEIR USES” (FOGHORN THERAPEUTICS INC., priority 2022, published 2026).
Like-named read-outs stand apart in the source and are kept apart here.

Legend:
[1] = molecular target: T1, HiBiT-BRM fusion protein in stable HeLa cell line (Homo sapiens, UniProt P51531); test: HiBiT-BRM cell-based degradation assay (Nano-Glo HiBiT Lytic Detection, 24 h); parameters: DC50: scale not given here; conditions: HeLa HiBiT-BRM cells; for DC50: read-out: BRM HiBit Degradation IC50; for BRM HiBit Degradation Maximum (%): top dose 30 μM
T1 construct: expressed in transfected cells
Description: (§1) Procedure: A stable HeLa cell line expressing HiBiT-BRM was generated. On day 0, 5000 cells were seeded in 40 μL of media into each well of 384-well cell culture plates. On day 1, cells were treated with 120 nL DMSO or 120 nL of 3-fold serially DMSO-diluted compounds (10 points in duplicate with 30 μM as final top dose). Subsequently plates were incubated for 24 h in a standard tissue culture incubator and equilibrated at room temperature for 15 minutes. Nano-Glo HiBiT Lytic Detection System (Promega N3050) reagent was freshly prepared and 20 ul was added to each well. Upon addition of this LgBit-containing reagent, the HiBiT and LgBiT proteins associate to form the luminescent NanoBiT luciferase. The plates were shaken for 10 minutes at room temperature and the bioluminescence read using an EnVision plate reader (PerkinElmer).
The degradation % was calculated using the following formula: % degradation=100%−100%×(Lumsample−LumLC)/(LumHC−LumLC). DMSO treated cells are employed as High Control (HC) and 2 μM of a known BRM/BRG1 degrader standard treated cells are employed as Low Control (LC).

[2] = molecular target: T2, HiBit-BRG1 fusion protein in stable HeLa cell line expressing HiBit-BRG1 and LgBit (Homo sapiens, UniProt P51532); test: HiBiT-BRG1 cell-based degradation assay (Nano-Glo HiBiT, 24 h); conditions: HeLa HiBit-BRG1/LgBit cells; for DC50: read-out: BRMG1 HiBit Degradation IC50; for Dmax: top dose 30 μM, read-out: BRG1 HiBit Degradation Maximum (%)
T2 construct: expressed in transfected cells
Description: as §1, with “On day 1, cells were treated with 120 nL DMSO or 120 nL of 3-fold serially DMSO-diluted compounds (10 points in duplicate with 30 μM as final top dose).” left out, “(PerkinElmer). For measurement of BRG1 degradation, a stable HeLa cell line expressing HiBit-BRG1 and LgBit was generated. The same protocol as above was then followed. The degradation % was calculated using the following formula: % degradation=100%−100%×(Lumsample−LumLC)/(LumHC−LumLC). DMSO treated cells are employed as High Control (HC) and 2 μM of a known BRM/BRG1 degrader standard treated cells are employed as Low Control (LC).” for “(PerkinElmer).”

T2 sequence (P51532 whole entry, the tested form may be a part): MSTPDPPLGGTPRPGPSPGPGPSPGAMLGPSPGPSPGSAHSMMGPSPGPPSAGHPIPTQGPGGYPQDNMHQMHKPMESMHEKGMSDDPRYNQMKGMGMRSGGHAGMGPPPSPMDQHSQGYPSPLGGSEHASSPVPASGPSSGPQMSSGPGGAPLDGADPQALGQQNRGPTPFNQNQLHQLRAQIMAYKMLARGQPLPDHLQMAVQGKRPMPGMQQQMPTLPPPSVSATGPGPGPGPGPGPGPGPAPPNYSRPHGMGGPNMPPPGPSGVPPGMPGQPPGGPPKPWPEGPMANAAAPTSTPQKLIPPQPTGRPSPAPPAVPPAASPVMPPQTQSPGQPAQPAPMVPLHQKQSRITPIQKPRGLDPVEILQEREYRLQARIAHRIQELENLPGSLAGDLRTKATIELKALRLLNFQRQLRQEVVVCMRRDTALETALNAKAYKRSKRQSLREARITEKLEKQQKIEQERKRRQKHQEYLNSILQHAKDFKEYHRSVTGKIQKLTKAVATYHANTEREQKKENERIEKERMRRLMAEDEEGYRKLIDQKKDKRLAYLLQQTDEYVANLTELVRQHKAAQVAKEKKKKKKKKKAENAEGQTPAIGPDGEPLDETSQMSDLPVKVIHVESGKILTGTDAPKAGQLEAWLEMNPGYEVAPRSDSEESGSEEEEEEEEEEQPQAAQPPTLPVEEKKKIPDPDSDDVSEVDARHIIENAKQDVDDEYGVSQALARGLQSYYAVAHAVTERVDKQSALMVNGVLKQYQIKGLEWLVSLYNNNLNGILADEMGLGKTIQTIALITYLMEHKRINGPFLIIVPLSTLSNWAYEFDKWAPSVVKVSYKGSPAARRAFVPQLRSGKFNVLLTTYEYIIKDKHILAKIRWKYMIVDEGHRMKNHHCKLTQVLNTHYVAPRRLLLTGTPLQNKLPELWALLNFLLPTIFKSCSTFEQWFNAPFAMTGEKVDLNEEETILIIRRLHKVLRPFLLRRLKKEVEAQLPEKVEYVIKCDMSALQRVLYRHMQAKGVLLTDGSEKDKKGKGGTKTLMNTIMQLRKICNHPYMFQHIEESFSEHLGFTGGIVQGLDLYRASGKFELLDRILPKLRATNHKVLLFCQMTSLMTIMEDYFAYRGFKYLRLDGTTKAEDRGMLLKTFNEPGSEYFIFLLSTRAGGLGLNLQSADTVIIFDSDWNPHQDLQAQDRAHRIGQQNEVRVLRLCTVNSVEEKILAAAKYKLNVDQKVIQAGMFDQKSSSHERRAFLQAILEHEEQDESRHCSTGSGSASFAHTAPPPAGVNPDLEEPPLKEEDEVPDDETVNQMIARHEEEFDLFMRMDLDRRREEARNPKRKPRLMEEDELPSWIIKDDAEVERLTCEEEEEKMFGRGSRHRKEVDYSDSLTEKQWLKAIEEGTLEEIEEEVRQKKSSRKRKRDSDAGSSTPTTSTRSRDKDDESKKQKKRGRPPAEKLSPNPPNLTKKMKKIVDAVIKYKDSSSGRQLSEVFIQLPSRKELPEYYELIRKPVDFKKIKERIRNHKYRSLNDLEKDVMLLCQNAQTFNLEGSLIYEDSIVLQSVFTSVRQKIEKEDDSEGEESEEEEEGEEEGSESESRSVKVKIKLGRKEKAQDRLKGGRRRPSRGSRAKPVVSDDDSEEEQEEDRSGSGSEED
T1 sequence (P51531 whole entry, the tested form may be a part): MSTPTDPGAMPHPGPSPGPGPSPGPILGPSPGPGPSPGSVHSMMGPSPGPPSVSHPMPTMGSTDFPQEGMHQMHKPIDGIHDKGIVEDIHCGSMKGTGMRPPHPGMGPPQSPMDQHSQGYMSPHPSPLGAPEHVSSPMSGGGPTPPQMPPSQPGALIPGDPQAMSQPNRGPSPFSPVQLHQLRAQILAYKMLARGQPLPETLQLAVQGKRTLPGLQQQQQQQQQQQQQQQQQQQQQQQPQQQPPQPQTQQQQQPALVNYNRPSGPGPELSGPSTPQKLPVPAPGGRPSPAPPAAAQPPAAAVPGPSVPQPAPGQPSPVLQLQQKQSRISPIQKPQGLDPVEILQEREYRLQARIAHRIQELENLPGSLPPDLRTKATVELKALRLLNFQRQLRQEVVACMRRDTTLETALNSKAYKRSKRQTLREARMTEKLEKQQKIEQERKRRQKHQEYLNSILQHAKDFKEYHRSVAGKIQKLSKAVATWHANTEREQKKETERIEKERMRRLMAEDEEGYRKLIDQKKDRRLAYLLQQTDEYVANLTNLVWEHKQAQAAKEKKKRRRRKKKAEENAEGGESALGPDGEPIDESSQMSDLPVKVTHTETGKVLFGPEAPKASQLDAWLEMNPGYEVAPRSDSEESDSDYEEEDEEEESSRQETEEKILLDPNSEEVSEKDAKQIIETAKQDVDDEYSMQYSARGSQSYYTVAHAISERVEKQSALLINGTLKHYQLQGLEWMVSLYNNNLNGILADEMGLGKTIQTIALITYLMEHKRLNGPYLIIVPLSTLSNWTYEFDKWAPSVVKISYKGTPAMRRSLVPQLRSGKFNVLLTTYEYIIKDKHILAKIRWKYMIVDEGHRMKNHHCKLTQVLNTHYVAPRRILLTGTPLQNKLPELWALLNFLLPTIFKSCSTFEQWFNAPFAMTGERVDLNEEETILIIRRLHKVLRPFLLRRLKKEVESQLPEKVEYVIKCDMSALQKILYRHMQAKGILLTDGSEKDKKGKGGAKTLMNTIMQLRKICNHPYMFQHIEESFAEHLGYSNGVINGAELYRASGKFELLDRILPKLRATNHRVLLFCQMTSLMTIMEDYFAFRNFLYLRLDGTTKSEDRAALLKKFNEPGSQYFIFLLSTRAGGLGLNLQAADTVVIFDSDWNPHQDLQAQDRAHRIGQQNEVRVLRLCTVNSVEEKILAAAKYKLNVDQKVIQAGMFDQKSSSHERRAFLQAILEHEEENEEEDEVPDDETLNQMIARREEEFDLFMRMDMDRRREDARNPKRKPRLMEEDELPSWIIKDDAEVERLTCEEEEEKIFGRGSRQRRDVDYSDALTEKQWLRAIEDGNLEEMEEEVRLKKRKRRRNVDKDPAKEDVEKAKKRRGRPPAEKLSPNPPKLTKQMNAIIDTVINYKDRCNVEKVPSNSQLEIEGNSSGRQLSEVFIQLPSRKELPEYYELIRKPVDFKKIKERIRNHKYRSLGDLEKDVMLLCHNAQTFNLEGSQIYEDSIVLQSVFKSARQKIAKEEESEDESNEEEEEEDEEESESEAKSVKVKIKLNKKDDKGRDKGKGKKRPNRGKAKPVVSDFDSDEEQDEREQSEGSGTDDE

Structure (SMILES) | DC50 [1] | DC50 [2] | Dmax [2] | DC50 ([1]; given as a number) | BRM HiBit Degradation Maximum (%) [1]
Cc1ncsc1-c1ccc([C@H](C)NC(=O)[C@@H]2C[C@@H](O)CN2C(=O)[C@@H](c2cc(-c3cnc(N4CC[C@@H](c5ccc6cc(-c7ccccc7O)nnc6c5)C4)nc3)no2)C(C)C)cc1 [Compound 20] | < 10 nM |  | < 50% |  | A (“A” indicates maximum degradation ≥75%)
Cc1ncsc1-c1ccc([C@H](C)NC(=O)[C@@H]2C[C@@H](O)CN2C(=O)[C@H](c2cc(-c3cnc(N4CC[C@H](c5ccc6cc(-c7ccccc7O)nnc6c5)C4)nc3)no2)C(C)C)cc1 [Compound 21] |  |  | < 50% |  | C (“C” indicates maximum degradation <50%)
Cc1ncsc1-c1ccc([C@H](C)NC(=O)[C@@H]2C[C@@H](O)CN2C(=O)[C@@H](c2cc(-c3cnc(N4CC[C@H](c5ccc6cc(-c7ccccc7O)nnc6c5)C4)nc3)no2)C(C)C)cc1 [Compound 22] | < 10 nM | < 10 nM | > 75% |  | A (“A” indicates maximum degradation ≥75%)
Cc1ncsc1-c1ccc([C@H](C)NC(=O)[C@@H]2C[C@@H](O)CN2C(=O)[C@H](c2cc(N3CCC4(CC3)CC(c3ccc5cc(-c6ccccc6O)nnc5c3)C4)no2)C(C)C)cc1 [Compound 25] | > 100 nM |  | < 50% |  | B (“B” indicates maximum degradation ≥50%)
Cc1ncsc1-c1ccc([C@H](C)NC(=O)[C@@H]2C[C@@H](O)CN2C(=O)[C@H](c2cc(-c3cnc(N4CC(c5cc6cc(-c7ccccc7O)nnc6cc5Cl)C4)nc3)no2)C(C)C)cc1 [Compound 29] | > 100 nM |  | < 50% |  | A (“A” indicates maximum degradation ≥75%)
Cc1ncsc1-c1ccc([C@H](C)NC(=O)[C@@H]2C[C@@H](O)CN2C(=O)[C@@H](c2cc(-c3cnc(N4CC(c5cc6cc(-c7ccccc7O)nnc6cc5Cl)C4)nc3)no2)C(C)C)cc1 [Compound 30] | < 10 nM | > 10 nM | > 75% |  | A (“A” indicates maximum degradation ≥75%)
Cc1ncsc1-c1ccc([C@H](C)NC(=O)[C@@H]2C[C@@H](O)CN2C(=O)[C@H](c2cc(-c3cnc(N4CC(c5cc6nnc(-c7ccccc7O)cc6cc5Cl)C4)nc3)no2)C(C)C)cc1 [Compound 31] |  |  | < 50% | 243 nM | A (“A” indicates maximum degradation ≥75%)
Cc1ncsc1-c1ccc([C@H](C)NC(=O)[C@@H]2C[C@@H](O)CN2C(=O)[C@H](c2cc(N3CC4(CC(c5ccc6cc(-c7ccccc7O)nnc6c5)C4)C3)no2)C(C)C)cc1 [Compound 33] | > 100 nM |  | < 50% |  | A (“A” indicates maximum degradation ≥75%)
Cc1ncsc1-c1ccc([C@H](C)NC(=O)[C@@H]2C[C@@H](O)CN2C(=O)[C@@H](c2cc(N3CC4(CC(c5ccc6cc(-c7ccccc7O)nnc6c5)C4)C3)no2)C(C)C)cc1 [Compound 34] | < 10 nM | > 10 nM | > 75% |  | A (“A” indicates maximum degradation ≥75%)
Cc1ncsc1-c1ccc([C@H](C)NC(=O)[C@@H]2C[C@@H](O)CN2C(=O)[C@H](c2cc(-c3ccnc(N4CCC(c5ccc6nnc(-c7ccccc7O)cc6c5)CC4)n3)no2)C(C)C)cc1 [Compound 37] |  |  | < 50% |  | C (“C” indicates maximum degradation <50%)
Cc1ncsc1-c1ccc([C@H](C)NC(=O)[C@@H]2C[C@@H](O)CN2C(=O)[C@@H](c2cc(-c3ccnc(N4CCC(c5ccc6nnc(-c7ccccc7O)cc6c5)CC4)n3)no2)C(C)C)cc1 [Compound 38] | > 100 nM |  | < 50% |  | A (“A” indicates maximum degradation ≥75%)

Continued, in another order:

DC50 [1] | DC50 [2] | Dmax [2] | DC50 ([1]; given as a number) | Structure (SMILES) | BRM HiBit Degradation Maximum (%) [1]
< 10 nM | > 10 nM | > 50% |  | Cc1ncsc1-c1ccc([C@H](C)NC(=O)[C@@H]2C[C@@H](O)CN2C(=O)[C@@H](c2cc(-c3cnc(N4CC5(CC(c6ccc7cc(-c8ccccc8O)nnc7c6)C5)C4)nc3)no2)C(C)C)cc1 [Compound 18] | A (“A” indicates maximum degradation ≥75%)
> 100 nM |  | < 50% |  | Cc1ncsc1-c1ccc([C@H](C)NC(=O)[C@@H]2C[C@@H](O)CN2C(=O)[C@H](c2cc(-c3cnc(N4CC[C@@H](c5ccc6cc(-c7ccccc7O)nnc6c5)C4)nc3)no2)C(C)C)cc1 [Compound 19] | B (“B” indicates maximum degradation ≥50%)
> 10 nM |  | < 50% |  | COc1cc2nnc(-c3ccccc3O)cc2cc1C1CN(c2ncc(-c3cc([C@@H](C(=O)N4C[C@H](O)C[C@H]4C(=O)N[C@@H](C)c4ccc(-c5scnc5C)cc4)C(C)C)on3)cn2)C1 [Compound 23] | A (“A” indicates maximum degradation ≥75%)
< 10 nM | < 10 nM | > 75% |  | COc1cc2nnc(-c3ccccc3O)cc2cc1C1CN(c2ncc(-c3cc([C@H](C(=O)N4C[C@H](O)C[C@H]4C(=O)N[C@@H](C)c4ccc(-c5scnc5C)cc4)C(C)C)on3)cn2)C1 [Compound 24] | A (“A” indicates maximum degradation ≥75%)
< 10 nM | > 10 nM | > 75% |  | Cc1ncsc1-c1ccc([C@H](C)NC(=O)[C@@H]2C[C@@H](O)CN2C(=O)[C@@H](c2cc(N3CCC4(CC3)CC(c3ccc5cc(-c6ccccc6O)nnc5c3)C4)no2)C(C)C)cc1 [Compound 26] | A (“A” indicates maximum degradation ≥75%)
> 100 nM |  | < 50% |  | Cc1ncsc1-c1ccc([C@H](C)NC(=O)[C@@H]2C[C@@H](O)CN2C(=O)[C@H](c2cc(-c3cnc(N4CC(c5cc(F)c6cc(-c7ccccc7O)nnc6c5)C4)nc3)no2)C(C)C)cc1 [Compound 27] | A (“A” indicates maximum degradation ≥75%)
> 10 nM |  | < 50% |  | Cc1ncsc1-c1ccc([C@H](C)NC(=O)[C@@H]2C[C@@H](O)CN2C(=O)[C@@H](c2cc(-c3cnc(N4CC(c5cc(F)c6cc(-c7ccccc7O)nnc6c5)C4)nc3)no2)C(C)C)cc1 [Compound 28] | A (“A” indicates maximum degradation ≥75%)
> 10 nM |  | < 50% |  | Cc1ncsc1-c1ccc([C@H](C)NC(=O)[C@@H]2C[C@@H](O)CN2C(=O)[C@@H](c2cc(-c3cnc(N4CC(c5cc6nnc(-c7ccccc7O)cc6cc5Cl)C4)nc3)no2)C(C)C)cc1 [Compound 32] | B (“B” indicates maximum degradation ≥50%)
> 100 nM |  | < 50% |  | Cc1ncsc1-c1ccc([C@H](C)NC(=O)[C@@H]2C[C@@H](O)CN2C(=O)[C@H](c2cc(-c3cnc(N4CC(c5cc(Cl)c6cc(-c7ccccc7O)nnc6c5)C4)nc3)no2)C(C)C)cc1 [Compound 35] | B (“B” indicates maximum degradation ≥50%)
> 10 nM |  | < 50% |  | Cc1ncsc1-c1ccc([C@H](C)NC(=O)[C@@H]2C[C@@H](O)CN2C(=O)[C@@H](c2cc(-c3cnc(N4CC(c5cc(Cl)c6cc(-c7ccccc7O)nnc6c5)C4)nc3)no2)C(C)C)cc1 [Compound 36] | B (“B” indicates maximum degradation ≥50%)
 |  | < 50% |  | Cc1ncsc1-c1ccc([C@H](C)NC(=O)[C@@H]2C[C@@H](O)CN2C(=O)[C@H](c2cc(-c3cnc(N4CCN(c5ccc6cc(-c7ccccc7O)nnc6c5)CC4)nc3)no2)C(C)C)cc1 [Compound 39] | C (“C” indicates maximum degradation <50%)
< 10 nM |  | < 50% |  | Cc1ncsc1-c1ccc([C@H](C)NC(=O)[C@@H]2C[C@@H](O)CN2C(=O)[C@@H](c2cc(-c3cnc(N4CCN(c5ccc6cc(-c7ccccc7O)nnc6c5)CC4)nc3)no2)C(C)C)cc1 [Compound 40] | A (“A” indicates maximum degradation ≥75%)
 |  | < 50% |  | Cc1ncsc1-c1ccc([C@H](C)NC(=O)[C@@H]2C[C@@H](O)CN2C(=O)[C@H](c2cc(-c3cnc(N4CCC(c5ccc6nnc(-c7ccccc7O)cc6c5)CC4)nc3)no2)C(C)C)cc1 [Compound 41] | C (“C” indicates maximum degradation <50%)
